Values after ≈ are worked out from the molar mass of the structure shown. “Also recorded” adds a separate entry of the source. Where two headings read alike, the source gives them in different places.
Legend:
[1] = tested on: S. aureus FtsZ (FtsZ^K175D_N-terminal-EGFP and FtsZ_C-terminal-mCherry); test: FCCS screening for inhibition of GTP-dependent head-to-tail dimerization of fragmented FtsZ; format: biochemical, Staphylococcus aureus; settings: from FCCS binding ratio; chemical 20 or 100 μM, GTP 2 mM, 30 min; mean (SD), n = 3
Experimental: The purified FtsZ^K175D_N-terminal-EGFP and FtsZ_C-terminal-mCherry were mixed in 0.44–0.85 μM each in a buffer composed of 50 mM Tris-HCl [pH 8.0], 500 mM Na2SO4 and 5 mM MgCl2. Mixed samples were dispensed as 48.5 μL aliquots into a 384-well glass bottom microplate (Olympus) and a 0.5 μL aliquot of the chemical at a concentration of 2 or 10 mM was added to each well. The final concentration of the chemicals was 20 or 100 μM. After mixing, FCCS measurement was performed (premeasurement, data not shown). After premeasurement of FCCS, 1 μL of GTP (100 mM) was added to each well (final concentration: 2 mM). After mixing and 30 min incubation at room temperature, FCCS measurement was performed. Using samples purified on a different day, independent screening was performed 3 times.
The data acquired from FCCS were analyzed using ZEN software (Zeiss, Germany). The fluorescence autocorrelation functions from the green, G G (τ), and red channels, G R (τ), and the fluorescence cross-correlation functions, G C (τ) were calculated according to the normalized correlation function. GG(τ)=1+⟨δIG(t)⋅δIG(t+τ)⟩/⟨IG(t)⟩⋅⟨IG(t)⟩ (1) GR(τ)=1+⟨δIR(t)⋅δIR(t+τ)⟩/⟨IR(t)⟩⋅⟨IR(t)⟩ (2) GC(τ)=1+⟨δIG(t)⋅δIR(t+τ)⟩/⟨IG(t)⟩⋅⟨IR(t)⟩ (3) where τ denotes the time delay, I G is the fluorescent intensity of the green channel, and I R is the fluorescent intensity of the red channel. The acquired autocorrelations were fitted using a two-component model, and cross-correlation was fitted using a one-component model. G(τ)=1+1−Ftriplet+Ftripletexp(−τ/τtrplet)/N(1−Ftriplet)×((Ffast/1+τ/τfast)1/1+τ/s^2τfast+(Fslow/1+τ/τslow)1/1+τ/s^2τslow) (4) where F triplet is the average fraction of triplet state molecules (in the fitting of cross-correlation, assuming F triplet is 0), τ triplet is the triplet relaxation time, and F fast and F slow are the fractions of the fast and slow components, respectively. τ fast and τ slow are the diffusion times of the fast and slow components, respectively. In the fitting of G G (τ), τ fast was fixed in the range from 100 to 200 μs. In the fitting of G R (τ), τ fast was fixed in the range from 200 to 300 μs. N is the average number of fluorescent particles in the excitation-detection volume defined by radius w, z is half of the long axis of the confocal volume element, and s is the structural parameter representing the ratio s = z/w. The values of w i (i = G or R) are determined from the diffusion coefficients of the rhodamine 6G and Alexa Fluor 594 used as standard dyes, respectively.
The average number calculated from autocorrelation N G and N R and complex cross-correlated particles N C is given by NG=1/GG(0)−1 (5) NR=1/GR(0)−1 (6) NC=GC(0)−1/(GR(0)−1)⋅(GG(0)−1) (7)
The binding ratio (BR), which directly indicates the tendency of interaction between FtsZ^K175D_N-terminal-EGFP and FtsZ_C-terminal-mCherry, was defined by the following Eq (8). When a chemical has a higher inhibitory effect, BR should be lower. BR=NC/NG (8)
Moreover, inhibition % was calculated using the following Eq (9). The inhibition % should be higher when the chemical has a higher inhibitory effect. inhibition%=BRDMSO,GTP(+)−BRchemical,GTP(+)/BRDMSO,GTP(+)×100 (9) where BR DMSO,GTP(+) is the binding ratio in the presence of DMSO (vehicle) and GTP is the control value indicating no inhibition, BR chemical,GTP(+) is the binding ratio in the presence a chemical and GTP. Considering the background, Eq (9) can be shown as follows. inhibition%=(BRDMSO,GTP(+)−BRbackground)−(BRchemical,GTP(+)−BRbackground)/BRDMSO,GTP(+)−BRbackground×100=BRDMSO,GTP(+)−BRchemical,GTP(+)/BRDMSO,GTP(+)−BRbackground×100 (10) where BR background is the binding ratio of the background obtained in the absence of GTP.

[2] = tested on: S. aureus ATCC 29213 (MSSA); test: Antibiotic susceptibility test (broth microdilution MIC); format: cell-based, Staphylococcus aureus; settings: Staphylococcus aureus, read-out: Minimal inhibitory concentration
Experimental: (§1) Antimicrobial susceptibility testing was performed by broth microdilution in cation-adjusted Mueller–Hinton broth (CAMHB) according to the CLSI guidelines. Overnight culture was suspended in CAMHB, and the OD625 was measured using an Ultrospec 6300 pro spectrophotometer (GE Healthcare). The culture suspension was diluted to 0.01 of the OD625, and 5 μL of it was inoculated into test medium containing the test chemical. Then incubation was performed at 35°C for 16 to 20 hours. The final inoculum size corresponded to ca. 5 x 10^4 CFU per well, which corresponded to ca. 5 x 10^5 CFU/mL. The minimum inhibitory concentration (MIC) endpoint was defined as the lowest concentration of the test chemical that inhibited bacterial growth as detected by the unaided eye.

A. baumannii ATCC 19606 = test: as above; format: cell-based; settings: Acinetobacter baumannii
Experimental: as §1

E. coli ATCC 25922 = test: as above; format: cell-based; settings: Escherichia coli
Experimental: as §1

E. faecalis ATCC 29212 = test: as above; format: cell-based; settings: Enterococcus faecalis
Experimental: as §1

E. faecalis SR7914 (VRE) = test: as above; format: cell-based; settings: Enterococcus faecalis, read-out: Minimal inhibitory concentration
Experimental: as §1

E. faecium ATCC 19434 = test: as above; format: cell-based; settings: Enterococcus faecium
Experimental: as §1

E. faecium SR7917 (VRE) = test: as above; format: cell-based; settings: Enterococcus faecium, read-out: Minimal inhibitory concentration
Experimental: as §1

H. influenzae ATCC 10211 = test: as above; format: cell-based; settings: Haemophilus influenzae
Experimental: as §1

K. pneumoniae ATCC 13883 = test: as above; format: cell-based; settings: Klebsiella pneumoniae
Experimental: as §1

P. aeruginosa ATCC 27853 = test: as above; format: cell-based; settings: Pseudomonas aeruginosa
Experimental: as §1

S. aureus SR3637 (MRSA) = test: as above; format: cell-based; settings: Staphylococcus aureus, read-out: Minimal inhibitory concentration
Experimental: as §1

S. pneumoniae Type I = test: as above; format: cell-based; settings: Streptococcus pneumoniae, read-out: Minimal inhibitory concentration
Experimental: as §1

[3] = tested on: panel of type strains of Gram-positive and Gram-negative bacterial pathogens; test: Antibiotic susceptibility test, summary over the whole panel; format: cell-based; settings: MIC panel of Gram-positive and Gram-negative type strains
Experimental: as §1

[4] = S. aureus ATCC 29213 (MSSA), CAMHB, 35°C, 16 to 20 hours
[5] = ATCC19606, A. baumannii ATCC 19606, CAMHB, 35°C, 16 to 20 hours, read-out: Minimal inhibitory concentration
[6] = ATCC25922, E. coli ATCC 25922, CAMHB, 35°C, 16 to 20 hours, read-out: Minimal inhibitory concentration
[7] = ATCC29212, E. faecalis ATCC 29212, CAMHB, 35°C, 16 to 20 hours, read-out: Minimal inhibitory concentration
[8] = E. faecalis SR7914 (VRE), CAMHB, 35°C, 16 to 20 hours
[9] = ATCC19434, E. faecium ATCC 19434, CAMHB, 35°C, 16 to 20 hours, read-out: Minimal inhibitory concentration
[10] = E. faecium SR7917 (VRE), CAMHB, 35°C, 16 to 20 hours
[11] = ATCC10211, H. influenzae ATCC 10211, CAMHB, 35°C, 16 to 20 hours, read-out: Minimal inhibitory concentration
[12] = ATCC13883, K. pneumoniae ATCC 13883, CAMHB, 35°C, 16 to 20 hours, read-out: Minimal inhibitory concentration
[13] = ATCC27853, P. aeruginosa ATCC 27853, CAMHB, 35°C, 16 to 20 hours, read-out: Minimal inhibitory concentration
[14] = S. aureus SR3637 (MRSA), CAMHB, 35°C, 16 to 20 hours
[15] = S. pneumoniae Type I, CAMHB, 35°C, 16 to 20 hours

SMILES | inhibition % [1] | MIC [2, 4] | MIC (A. baumannii ATCC 19606; [5]) | MIC (E. coli ATCC 25922; [6]) | MIC (E. faecalis ATCC 29212; [7]) | MIC (E. faecalis SR7914 (VRE); [8]) | MIC (E. faecium ATCC 19434; [9]) | MIC (E. faecium SR7917 (VRE); [10]) | MIC (H. influenzae ATCC 10211; [11]) | MIC (K. pneumoniae ATCC 13883; [12]) | MIC (P. aeruginosa ATCC 27853; [13]) | MIC (S. aureus SR3637 (MRSA); [14]) | MIC (S. pneumoniae Type I; [15]) | other results
O=C(c1cccc(-n2cnnc2)c1)N1CC2CCC(Cc3cccc(Cl)c3)C2C1 (stereo not shown) [Chemical #5] | 46.7 (11.4) % | > 64 µg/mL | > 64 µg/mL | > 64 µg/mL | > 64 µg/mL | > 64 µg/mL | > 64 µg/mL | > 64 µg/mL | > 64 µg/mL | > 64 µg/mL | > 64 µg/mL | > 64 µg/mL | > 64 µg/mL | –
O=C(NNC(=S)NC1CC2CCC1C2)c1cc2ccccc2cc1O (stereo not shown) [Chemical #4] | 64.4 (5.8) % | > 32 µg/mL | > 32 µg/mL | > 32 µg/mL | > 32 µg/mL | > 32 µg/mL | > 32 µg/mL | > 32 µg/mL | > 32 µg/mL | > 32 µg/mL | > 32 µg/mL | > 32 µg/mL | > 32 µg/mL | –
CS(=O)(=O)NC1=NN2C(=NC(c3ccccc3)=CC2c2ccccc2Cl)N1 (stereo not shown) [Chemical #6] | 40.9 (1.2) % | > 64 µg/mL | > 64 µg/mL | > 64 µg/mL | > 64 µg/mL | > 64 µg/mL | > 64 µg/mL | > 64 µg/mL | > 64 µg/mL | > 64 µg/mL | > 64 µg/mL | > 64 µg/mL | > 64 µg/mL | –
COCCN(CCOC)P1(=O)C=C(c2ccccc2)SC(c2ccccc2)=C1 [Chemical #2] | 69.0 (2.4) % | – | – | – | – | – | – | – | – | – | – | – | – | MIC [2]: 8 µg/mL (≈ 19.3 µM); MIC (A. baumannii ATCC 19606; ATCC19606, read-out: Minimal inhibitory concentration): > 64 µg/mL; MIC (E. coli ATCC 25922; ATCC25922, read-out: Minimal inhibitory concentration): > 64 µg/mL; MIC (E. faecalis ATCC 29212; ATCC29212, read-out: Minimal inhibitory concentration): 32 µg/mL (≈ 77 µM); MIC (E. faecalis SR7914 (VRE); VRE): 32 µg/mL (≈ 77 µM); MIC (E. faecium ATCC 19434; ATCC19434, read-out: Minimal inhibitory concentration): > 64 µg/mL; MIC (E. faecium SR7917 (VRE); VRE): > 64 µg/mL; MIC (H. influenzae ATCC 10211; ATCC10211, read-out: Minimal inhibitory concentration): > 64 µg/mL; MIC (K. pneumoniae ATCC 13883; ATCC13883, read-out: Minimal inhibitory concentration): > 64 µg/mL; MIC (P. aeruginosa ATCC 27853; ATCC27853, read-out: Minimal inhibitory concentration): > 64 µg/mL; MIC (S. aureus SR3637 (MRSA); MRSA): 8 µg/mL (≈ 19.3 µM); MIC (S. pneumoniae Type I): 64 µg/mL (≈ 154 µM); antibacterial activity (in words) [3]: inhibited the growth of Staphylococcus spp. and Enterococcus spp; also recorded: no activity against other Gram-positive species or any of the Gram-negative pathogens tested
COc1ccc(C2C=C(c3ccc(Br)cc3)N=C3NC(NS(C)(=O)=O)=NN32)cc1 (stereo not shown) [Chemical #1] | 88.6 (6.8) % | > 64 µg/mL | > 64 µg/mL | > 64 µg/mL | > 64 µg/mL | > 64 µg/mL | > 64 µg/mL | > 64 µg/mL | > 64 µg/mL | > 64 µg/mL | > 64 µg/mL | > 64 µg/mL | > 64 µg/mL | –
O=C(NNS(=O)(=O)c1cc(Cl)ccc1Cl)c1cc2c(s1)CCCC2 [Chemical #3] | 68.5 (1.7) % | > 64 µg/mL | > 64 µg/mL | > 64 µg/mL | > 64 µg/mL | > 64 µg/mL | > 64 µg/mL | > 64 µg/mL | > 64 µg/mL | > 64 µg/mL | > 64 µg/mL | > 64 µg/mL | > 64 µg/mL | –
